Measured values published in patent US8546320B2, “Hsp9O-targeted anti-cancer chimeric peptide” (Kyoto University, priority 2008, dated 2013).
Where a SMILES comes first, the peptide text is derived from it.

How the values were obtained:
[1] = system: cancer cells; test: Cell viability assay, summary statements on cancer cells; format: cell-based; details: single mutation in TPR or Antp region of Antp-TPR
[2] = system: Caki-1; format: cell-based, human; details: Caki-1; for Anti-cancer activity (% relative to wild-type peptide) / Decrease in cell survival rate (% relative to wild-type peptide): wild-type peptide = 100%
[3] = system: U937; test: cells; format: cell-based, human; details: for Anti-cancer activity (% relative to wild-type peptide) / Decrease in cell survival rate (% relative to wild-type peptide) / killing effect compared with the wild-type peptide: U937; for Anti-cancer activity (% relative to wild-type peptide) / Decrease in cell survival rate (% relative to wild-type peptide): wild-type peptide = 100%
Procedure: A total of 3×10^3 cells per well were inoculated onto a 96 well plate, and incubated in a medium containing 10% FBS with 100 μl of a peptide diluted stepwise at 37° C. for 48 to 72 hours. The survival rate of the cells was measured by using WST-8 solution (Cell Count Reagent SF; Nacalai Tesque, Inc.).

Structure (SMILES)	effect compared with the wild-type protein (summary of mutations) [1]	Anti-cancer activity (% relative to wild-type peptide) [2]	Decrease in cell survival rate (% relative to wild-type peptide) [2]	Cell Survival Rate (%) [3]	Anti-cancer activity (% relative to wild-type peptide) [3]	Decrease in cell survival rate (% relative to wild-type peptide) [3]	killing effect compared with the wild-type peptide [3]	killing effect compared with the wild-type peptide [2]
CC[C@H](C)[C@H](NC(=O)[C@H](CCCNC(=N)N)NC(=O)[C@H](C)NC(=O)[C@H](Cc1ccc(O)cc1)NC(=O)[C@H](C)NC(=O)[C@H](C)NC(=O)[C@H](CCCCN)NC(=O)[C@H](CCCCN)NC(=O)[C@H](Cc1c[nH]c2ccccc12)NC(=O)[C@H](CCCCN)NC(=O)[C@H](CCSC)NC(=O)[C@H](CCCNC(=N)N)NC(=O)[C@H](CCCNC(=N)N)NC(=O)[C@H](CC(N)=O)NC(=O)[C@H](CCC(N)=O)NC(=O)[C@H](Cc1ccccc1)NC(=O)[C@H](Cc1c[nH]c2ccccc12)NC(=O)[C@@H](NC(=O)[C@H](CCCCN)NC(=O)[C@@H](NC(=O)[C@H](CCC(N)=O)NC(=O)[C@@H](N)CCCNC(=N)N)[C@@H](C)CC)[C@@H](C)CC)C(=O)NCC(=O)N[C@@H](CC(N)=O)C(=O)N[C@@H](CO)C(=O)N[C@@H](Cc1ccc(O)cc1)C(=O)N[C@@H](Cc1ccccc1)C(=O)N[C@@H](CCCCN)C(=O)O [Antp-K1A] (H-RQIKIWFQNRRMKWKKAAYARIGNSYFK-OH; N-terminus and C-terminus assumed)	effective but with a lower effect than the wild-type protein	20.29%	13.04%	93.55%	8.41%	24.84%		
CC[C@H](C)[C@H](NC(=O)[C@H](CCCCN)NC(=O)[C@H](C)NC(=O)[C@H](Cc1ccc(O)cc1)NC(=O)[C@H](C)NC(=O)[C@H](CCCCN)NC(=O)[C@H](CCCCN)NC(=O)[C@H](CCCCN)NC(=O)[C@H](Cc1c[nH]c2ccccc12)NC(=O)[C@H](CCCCN)NC(=O)[C@H](CCSC)NC(=O)[C@H](CCCNC(=N)N)NC(=O)[C@H](CCCNC(=N)N)NC(=O)[C@H](CC(N)=O)NC(=O)[C@H](CCC(N)=O)NC(=O)[C@H](Cc1ccccc1)NC(=O)[C@H](Cc1c[nH]c2ccccc12)NC(=O)[C@@H](NC(=O)[C@H](CCCCN)NC(=O)[C@@H](NC(=O)[C@H](CCC(N)=O)NC(=O)[C@@H](N)CCCNC(=N)N)[C@@H](C)CC)[C@@H](C)CC)C(=O)NCC(=O)N[C@@H](CC(N)=O)C(=O)N[C@@H](CO)C(=O)N[C@@H](Cc1ccc(O)cc1)C(=O)N[C@@H](Cc1ccccc1)C(=O)N[C@@H](CCCCN)C(=O)O [Antp-R5K] (H-RQIKIWFQNRRMKWKKKAYAKIGNSYFK-OH; N-terminus and C-terminus assumed)	effective but with a lower effect than the wild-type protein	6.58%	11.34%	92.57%	9.68%	25.10%		
CC[C@H](C)[C@H](NC(=O)[C@H](CCCNC(=N)N)NC(=O)[C@H](C)NC(=O)[C@H](Cc1ccc(O)cc1)NC(=O)[C@H](C)NC(=O)[C@H](CCCCN)NC(=O)[C@H](CCCCN)NC(=O)[C@H](CCCCN)NC(=O)[C@H](Cc1c[nH]c2ccccc12)NC(=O)[C@H](CCCCN)NC(=O)[C@H](CCSC)NC(=O)[C@H](CCCNC(=N)N)NC(=O)[C@H](CCCNC(=N)N)NC(=O)[C@H](CC(N)=O)NC(=O)[C@H](CCC(N)=O)NC(=O)[C@H](Cc1ccccc1)NC(=O)[C@H](Cc1c[nH]c2ccccc12)NC(=O)[C@@H](NC(=O)[C@H](CCCCN)NC(=O)[C@@H](NC(=O)[C@H](CCC(N)=O)NC(=O)[C@@H](N)CCCNC(=N)N)[C@@H](C)CC)[C@@H](C)CC)C(=O)NCC(=O)N[C@@H](CC(N)=O)C(=O)N[C@@H](CO)C(=O)N[C@@H](CO)C(=O)N[C@@H](Cc1ccccc1)C(=O)N[C@@H](CCCCN)C(=O)O [Antp-Y10S] (H-RQIKIWFQNRRMKWKKKAYARIGNSSFK-OH; N-terminus and C-terminus assumed)	effect similar to that of the wild-type protein	74.56%	31.97%	28.05%	93.73%	82.83%		
CC[C@H](C)[C@H](NC(=O)[C@H](CCCNC(=N)N)NC(=O)[C@H](C)NC(=O)[C@H](Cc1ccc(O)cc1)NC(=O)[C@H](C)NC(=O)[C@H](CCCCN)NC(=O)[C@H](CCCCN)NC(=O)[C@H](CCCCN)NC(=O)[C@H](Cc1c[nH]c2ccccc12)NC(=O)[C@H](CCCCN)NC(=O)[C@H](CCSC)NC(=O)[C@H](CCCNC(=N)N)NC(=O)[C@H](CCCNC(=N)N)NC(=O)[C@H](CC(N)=O)NC(=O)[C@H](CCC(N)=O)NC(=O)[C@H](Cc1ccccc1)NC(=O)[C@H](Cc1c[nH]c2ccccc12)NC(=O)[C@@H](NC(=O)[C@H](CCCCN)NC(=O)[C@@H](NC(=O)[C@H](CCC(N)=O)NC(=O)[C@@H](N)CCCNC(=N)N)[C@@H](C)CC)[C@@H](C)CC)C(=O)NCC(=O)N[C@@H](CCC(N)=O)C(=O)N[C@@H](CO)C(=O)N[C@@H](Cc1ccc(O)cc1)C(=O)N[C@@H](Cc1ccccc1)C(=O)N[C@@H](CCCCN)C(=O)O [Antp-N8Q] (H-RQIKIWFQNRRMKWKKKAYARIGQSYFK-OH; N-terminus and C-terminus assumed)	effect higher than the wild-type protein	98.57%	89.35%	10.06%	117.17%	230.94%	increase in effect	
CC[C@H](C)[C@H](NC(=O)[C@H](CCCNC(=N)N)NC(=O)[C@H](C)NC(=O)[C@H](Cc1ccc(O)cc1)NC(=O)[C@H](C)NC(=O)[C@H](CCCCN)NC(=O)[C@H](CCCCN)NC(=O)[C@H](CCCCN)NC(=O)[C@H](Cc1c[nH]c2ccccc12)NC(=O)[C@H](CCCCN)NC(=O)[C@H](CCSC)NC(=O)[C@H](CCCNC(=N)N)NC(=O)[C@H](CCCNC(=N)N)NC(=O)[C@H](CC(N)=O)NC(=O)[C@H](CCC(N)=O)NC(=O)[C@H](Cc1ccccc1)NC(=O)[C@H](Cc1c[nH]c2ccccc12)NC(=O)[C@@H](NC(=O)[C@H](CCCCN)NC(=O)[C@@H](NC(=O)[C@H](CCC(N)=O)NC(=O)[C@@H](N)CCCNC(=N)N)[C@@H](C)CC)[C@@H](C)CC)C(=O)NCC(=O)N[C@@H](CC(N)=O)C(=O)N[C@@H](CO)C(=O)N[C@@H](Cc1ccc(O)cc1)C(=O)N[C@@H](Cc1ccc(O)cc1)C(=O)N[C@@H](CCCCN)C(=O)O [Antp-F11Y] (H-RQIKIWFQNRRMKWKKKAYARIGNSYYK-OH; N-terminus and C-terminus assumed)	effect higher than the wild-type protein	110.50%	820.08%	1.10%	128.84%	2116.95%	increase in effect	stronger than that of the wild-type peptide
CC[C@H](C)[C@H](NC(=O)[C@H](CCCNC(=N)N)NC(=O)[C@H](C)NC(=O)[C@H](Cc1ccc(O)cc1)NC(=O)[C@H](C)NC(=O)[C@H](CCCNC(=N)N)NC(=O)[C@H](CCCCN)NC(=O)[C@H](CCCCN)NC(=O)[C@H](Cc1c[nH]c2ccccc12)NC(=O)[C@H](CCCCN)NC(=O)[C@H](CCSC)NC(=O)[C@H](CCCNC(=N)N)NC(=O)[C@H](CCCNC(=N)N)NC(=O)[C@H](CC(N)=O)NC(=O)[C@H](CCC(N)=O)NC(=O)[C@H](Cc1ccccc1)NC(=O)[C@H](Cc1c[nH]c2ccccc12)NC(=O)[C@@H](NC(=O)[C@H](CCCCN)NC(=O)[C@@H](NC(=O)[C@H](CCC(N)=O)NC(=O)[C@@H](N)CCCNC(=N)N)[C@@H](C)CC)[C@@H](C)CC)C(=O)NCC(=O)N[C@@H](CC(N)=O)C(=O)N[C@@H](CO)C(=O)N[C@@H](Cc1ccc(O)cc1)C(=O)N[C@@H](Cc1ccccc1)C(=O)N[C@@H](CCCCN)C(=O)O [Antp-K1R] (H-RQIKIWFQNRRMKWKKRAYARIGNSYFK-OH; N-terminus and C-terminus assumed)	effective but with a lower effect than the wild-type protein	35.81%	15.70%	91.39%	11.22%	25.43%		
CC[C@H](C)[C@H](NC(=O)[C@H](CCCCN)NC(=O)[C@@H](NC(=O)[C@H](CCC(N)=O)NC(=O)[C@@H](N)CCCNC(=N)N)[C@@H](C)CC)C(=O)N[C@@H](Cc1c[nH]c2ccccc12)C(=O)N[C@@H](Cc1ccccc1)C(=O)N[C@@H](CCC(N)=O)C(=O)N[C@@H](CC(N)=O)C(=O)N[C@@H](CCCNC(=N)N)C(=O)N[C@@H](CCCNC(=N)N)C(=O)N[C@@H](CCSC)C(=O)N[C@@H](CCCCN)C(=O)N[C@@H](Cc1c[nH]c2ccccc12)C(=O)N[C@@H](CCCCN)C(=O)N[C@@H](CCCCN)C(=O)N[C@@H](CCCCN)C(=O)N[C@@H](C)C(=O)N[C@@H](Cc1ccc(O)cc1)C(=O)N[C@@H](C)C(=O)N[C@@H](CCCNC(=N)N)C(=O)N[C@@H](CCCNC(=N)N)C(=O)NCC(=O)N[C@@H](CC(N)=O)C(=O)N[C@@H](CO)C(=O)N[C@@H](Cc1ccc(O)cc1)C(=O)N[C@@H](Cc1ccccc1)C(=O)N[C@@H](CCCCN)C(=O)O [Antp-I6R] (H-RQIKIWFQNRRMKWKKKAYARRGNSYFK-OH; N-terminus and C-terminus assumed)	effective but with a lower effect than the wild-type protein	1.95%	10.87%	91.60%	10.92%	25.36%		
